Assay results from patent US8193164B2, “Organic compounds” (Novartis AG, priority 2006, dated 2012).

Biological target: adenosine A2A receptor (Homo sapiens, UniProt P29274)
Test: adenosine A2A receptor agonist assay (method of Murphree et al, Molecular Pharmacology 61, 455-462 (2002))
Assay type: binding
Conditions: method described by L. J. Murphree et al, Mol. Pharmacol. 61, 455-462 (2002)
Source text: Compounds of formulae (I) and (II) and their pharmaceutically acceptable salts are useful as pharmaceuticals. In particular, they activate the adenosine A2A receptor, i.e. they act as A2A receptor agonists.

adenosine A2A receptor, sequence (P29274 whole entry): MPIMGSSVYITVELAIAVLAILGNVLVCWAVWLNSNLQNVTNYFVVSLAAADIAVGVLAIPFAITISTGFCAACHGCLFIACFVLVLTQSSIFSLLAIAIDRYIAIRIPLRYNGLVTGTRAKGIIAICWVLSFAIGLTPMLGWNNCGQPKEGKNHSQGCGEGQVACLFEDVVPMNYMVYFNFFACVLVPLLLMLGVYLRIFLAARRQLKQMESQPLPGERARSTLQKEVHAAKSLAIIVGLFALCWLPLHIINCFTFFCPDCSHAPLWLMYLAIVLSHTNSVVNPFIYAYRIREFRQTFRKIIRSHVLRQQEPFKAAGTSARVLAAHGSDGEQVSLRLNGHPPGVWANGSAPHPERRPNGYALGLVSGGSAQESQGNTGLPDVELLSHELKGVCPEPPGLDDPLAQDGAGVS

| Ki [nM] | SMILES |
| --- | --- |
| 10 | CCC(=O)N[C@H]1C[C@@H](n2cnc3c(NC(CO)Cc4ccccc4)nc(N4CC[C@@H](NC(=O)N[C@H]5CCN(c6nc(NC(CO)Cc7ccccc7)c7ncn([C@@H]8C[C@H](NC(=O)CC)[C@@H](O)[C@H]8O)c7n6)C5)C4)nc32)[C@H](O)[C@@H]1O (stereo in doubt) [Example 7] |
| 70 | CCC(=O)N[C@H]1C[C@@H](n2cnc3c(NCC(c4ccccc4)c4ccccc4)nc(N4CC[C@@H](NC(=O)NC5CCC(NC(=O)N[C@H]6CCN(c7nc(NCC(c8ccccc8)c8ccccc8)c8ncn([C@@H]9C[C@H](NC(=O)CC)[C@@H](O)[C@H]9O)c8n7)C6)CC5)C4)nc32)[C@H](O)[C@@H]1O (stereo in doubt) [Example 15] |
| 10 | CCC(=O)N[C@H]1C[C@@H](n2cnc3c(NCC(c4ccccc4)c4ccccc4)nc(N4CC[C@@H](NC(=O)N[C@@H]5CCN(c6nc(NCC(c7ccccc7)c7ccccc7)c7ncn([C@@H]8C[C@H](NC(=O)CC)[C@@H](O)[C@H]8O)c7n6)C5)C4)nc32)[C@H](O)[C@@H]1O [Example 1] |
| 60 | CCC(=O)N[C@H]1C[C@@H](n2cnc3c(NCC(c4ccccc4)c4ccccc4)nc(N4CC[C@@H](NC(=O)NS(=O)(=O)N[C@@H]5CCN(c6nc(NCC(c7ccccc7)c7ccccc7)c7ncn([C@@H]8C[C@H](NC(=O)CC)[C@@H](O)[C@H]8O)c7n6)C5)C4)nc32)[C@H](O)[C@@H]1O [Example 19] |
